Consider three compounds from patent publication US20110065595A1, “Method and Test Kit for the Rapid Identification and Characterization of Cells” (priority 2007, published 2011).

The subject of this assay is strain B of Bacillus cereus (β-lactamase SF-marker). Kind of assay: Sensitivity profile of B. cereus in soil suspension using inducible β-lactamase as SF-marker (iodometric starch-iodine decolorization). As to conditions: for inhibition of the enzymatic reaction / remaining part of the enzymatic reaction: compared with control sample; for increase of time needed for decolorization versus control: compared with control sample (47 seconds); for effect on activity / synthesis of the SF marker (β-lactamase) / sensitivity or resistance of strain B to the antibiotic: judged from decolorization time; for Decolorization time: soil suspension in nutrient broth with 1.0 mcg cloxacillin inducer, 10 min at 30° C., then Assay Reagent with phenoxymethylpenicillin, control without addition 47 seconds, activity inversely proportional to time. In kind it is cell-based. As for the experimental part: Reagents • Nutrient broth and Nutrient Agar were purchased from Difco (cat. No. #233000 and #211665, respectively). • Mueller Hinton agar—purchased from Difco (cat. No. 225250). • Assay Reagent solution—50 mM potassium iodide and 10 mM iodine in 0.75% aqueous starch solution • L-alanine—was used for spore germination (purchased from Fluka, cat no. 29236).
BBL antibiotic sensitivity testing disks were used for sensitivity profiling were placed in respective test tubes:
Preparation of anti-penicillinase antibodies was previously described by the present inventor [Citri, N; et al. Nature 190 (478):1010-1011 (1961)]. Briefly neutralizing antiserum was prepared by immunizing rabbits with a highly purified preparation of exopenicillinase produced by strain 569/H of B. cereus. Twenty mg of the enzyme were administered with Freund's adjuvant in three intramuscular injections at ten-day intervals.
In order to perform a combined characterization of bacteria identification and antibiotic sensitivity profiling, the inventor used a strain of Bacillus cereus expressing the characterizing enzyme β-lactamase (penicillinase) that is used herein as a structural-functional marker (SF-marker).
A colony of strain B of Bacillus cereus was dispersed in 0.5 gm of garden soil suspended in 3 ml of distilled water. Samples of the suspension, 0.3 ml each, were placed in 5 test, tubes, each containing 0.5 ml nutrient broth [double strength] spiked with 1.0 mcg cloxacillin, and each supplemented as listed in Table 1 below. After 10 min. at 30° C. the test was initiated by the addition to each test tube of 0.1 ml of the Assay Reagent solution containing the substrate, phenoxymethylpenicillin [10 mg/mL]. The time required for complete decolorization of the starch-iodine complex by the product of the catalytic reaction was recorded as shown in Table 1.

Bounds are passed on as bounds.

Take `CC[C@H]1OC(=O)[C@H](C)[C@@H](O[C@H]2C[C@@](C)(OC)[C@@H](O)[C@H](C)O2)[C@H](C)[C@@H](O[C@@H]2O[C@H](C)C[C@H](N(C)C)[C@H]2O)[C@](C)(O)C[C@@H](C)C(=O)[C@H](C)[C@@H](O)[C@]1(C)O` [Erythromycin]: the “inhibition of the enzymatic reaction” value was “about 99%”, the “remaining part of the enzymatic reaction” value is “about 0.12%”, the “increase of time needed for decolorization versus control” value is roughly 18 folds and the “effect on activity / synthesis of the SF marker (β-lactamase)” value (“effect on activity / synthesis” for short) is “inhibited”. Further, the “sensitivity or resistance of strain B to the antibiotic” value (“sensitivity or resistance of strain B” for short) is on record as “sensitive” and the Decolorization time was greater than 850 s.

Consider Gentamicin, for which the “effect on activity / synthesis” value is “no effect”, the “sensitivity or resistance of strain B” value is listed as “resistant” and the Decolorization time worked out at 48 s.

Take `C[C@H]1c2cccc(O)c2C(=O)C2=C(O)[C@]3(O)C(=O)C(C(N)=O)=C(O)[C@@H](N(C)C)[C@@H]3[C@@H](O)[C@@H]21` [Doxycyclin, Doxycycline]: the “inhibition of the enzymatic reaction” value is recorded as “about 99%”, the “remaining part of the enzymatic reaction” value is listed as “about 0.12%”, the “increase of time needed for decolorization versus control” value is on record as “about 17.3 folds” and the “effect on activity / synthesis” value is listed as “inhibited”. Moreover, the “sensitivity or resistance of strain B” value is “sensitive” and the Decolorization time amounted to 815 s.
